# Earlier results as cited in patent US20100113580A1, “COMBINATION THERAPIES FOR THE TREATMENT OF OBESITY” (priority 2008, published 2010).
# Settings: literature studies of single weight loss drugs
row,SMILES,weight loss of body weight for drug compared with placebo
1,CCN[C@@H](C)Cc1cccc(C(F)(F)F)c1 [dexfenfluramine],about 5%
2,CCCCCCCCCCC[C@@H](C[C@@H]1OC(=O)[C@H]1CCCCCC)OC(=O)[C@H](CC(C)C)NC=O [orlistat],about 5%
3,CC(C)CC(N(C)C)C1(c2ccc(Cl)cc2)CCC1 (stereo not drawn) [sibutramine],about 5%
